Test [1] has as its target T1, GGCX^AA•FX complex (Homo sapiens, UniProt P38435, K217A/K218A).
T1 construct: GGCX K217A/K218A double mutant in complex with FX, cryo-EM; with Coagulation factor X
As to the kind of experiment: cryo-EM structure, […] Å. The test is classed as binding. The following applies: catalytically inactive GGCX double mutant.

The target in test [2] is T2, GGCX•FIX complex (Homo sapiens, UniProt P38435).
T2 construct: GGCX co-expressed with full-length FIX in HEK293F cells, cryo-EM in detergent micelle; FIX propeptide and GLA domain (residues 29-92) resolved; WT and K217A/K218A GGCX; with Coagulation factor IX
As to the kind of experiment: cryo-EM structure, […] Å. Format: binding.

In test [3] the target is T3, GGCX•FIX complex (Homo sapiens, UniProt P38435, K217A/K218A).
T3 construct: GGCX co-expressed with full-length FIX in HEK293F cells, cryo-EM in detergent micelle; FIX propeptide and GLA domain (residues 29-92) resolved; WT and K217A/K218A GGCX; with Coagulation factor IX
As to the kind of experiment: cryo-EM structure, […] Å. The test is classed as binding. The following applies: catalytically inactive GGCX double mutant.

Test [4] has as its target T4, GGCX (Homo sapiens, UniProt P38435).
T4 construct: Flag-tagged GGCX used in pull-downs
T4 sequence (P38435 2-758): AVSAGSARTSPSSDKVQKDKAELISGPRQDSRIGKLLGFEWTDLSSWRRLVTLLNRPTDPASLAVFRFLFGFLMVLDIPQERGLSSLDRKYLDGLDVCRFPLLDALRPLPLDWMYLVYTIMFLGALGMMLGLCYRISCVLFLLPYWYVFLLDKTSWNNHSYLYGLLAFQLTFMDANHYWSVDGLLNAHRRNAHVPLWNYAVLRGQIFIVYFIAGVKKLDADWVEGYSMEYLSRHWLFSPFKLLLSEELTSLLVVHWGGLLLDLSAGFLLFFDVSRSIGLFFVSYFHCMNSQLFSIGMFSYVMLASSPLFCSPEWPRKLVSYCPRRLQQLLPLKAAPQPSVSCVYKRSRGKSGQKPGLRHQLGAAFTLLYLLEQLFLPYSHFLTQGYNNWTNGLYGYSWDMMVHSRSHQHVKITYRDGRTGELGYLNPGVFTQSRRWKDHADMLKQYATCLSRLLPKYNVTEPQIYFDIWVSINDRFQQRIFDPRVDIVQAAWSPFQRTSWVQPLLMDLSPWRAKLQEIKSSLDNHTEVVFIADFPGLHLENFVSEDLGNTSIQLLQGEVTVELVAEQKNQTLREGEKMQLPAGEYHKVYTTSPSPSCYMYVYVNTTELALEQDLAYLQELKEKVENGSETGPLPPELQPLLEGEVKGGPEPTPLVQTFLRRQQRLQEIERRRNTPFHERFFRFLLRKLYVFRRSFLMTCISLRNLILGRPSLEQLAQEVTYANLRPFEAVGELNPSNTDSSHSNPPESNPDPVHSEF
The experiment in a line: binding assay, method not told in main text (Fig. S9). The following applies: homologue not told in main text.

For test [5], the target named is T4, GGCX. The experiment in a line: binding assay, method not told in main text (Fig. S8). The following applies: form and homologue of vitamin K not told in main text.

T2 sequence (P38435 whole entry, the tested form may be a part): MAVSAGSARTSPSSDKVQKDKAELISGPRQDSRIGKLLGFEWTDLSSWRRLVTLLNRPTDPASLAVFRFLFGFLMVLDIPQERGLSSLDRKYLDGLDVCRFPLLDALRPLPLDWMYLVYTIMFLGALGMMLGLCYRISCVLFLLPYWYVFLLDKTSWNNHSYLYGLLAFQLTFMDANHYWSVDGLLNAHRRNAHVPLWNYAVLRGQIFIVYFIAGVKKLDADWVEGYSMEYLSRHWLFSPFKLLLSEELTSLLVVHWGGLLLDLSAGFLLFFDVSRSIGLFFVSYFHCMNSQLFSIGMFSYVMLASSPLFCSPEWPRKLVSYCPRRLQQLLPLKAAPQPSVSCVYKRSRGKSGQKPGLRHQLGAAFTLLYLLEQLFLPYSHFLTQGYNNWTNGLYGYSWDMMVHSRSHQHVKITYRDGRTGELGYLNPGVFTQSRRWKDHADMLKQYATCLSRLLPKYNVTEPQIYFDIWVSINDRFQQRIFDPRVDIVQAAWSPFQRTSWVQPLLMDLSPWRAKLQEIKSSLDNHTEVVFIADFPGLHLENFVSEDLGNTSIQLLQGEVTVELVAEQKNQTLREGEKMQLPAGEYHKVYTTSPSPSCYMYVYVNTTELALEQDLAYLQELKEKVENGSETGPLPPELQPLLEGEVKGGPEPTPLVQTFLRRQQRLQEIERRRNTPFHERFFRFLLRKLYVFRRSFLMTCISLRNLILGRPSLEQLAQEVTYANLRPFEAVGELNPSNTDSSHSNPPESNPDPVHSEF
T2 sequence (P00740 29-461 partner): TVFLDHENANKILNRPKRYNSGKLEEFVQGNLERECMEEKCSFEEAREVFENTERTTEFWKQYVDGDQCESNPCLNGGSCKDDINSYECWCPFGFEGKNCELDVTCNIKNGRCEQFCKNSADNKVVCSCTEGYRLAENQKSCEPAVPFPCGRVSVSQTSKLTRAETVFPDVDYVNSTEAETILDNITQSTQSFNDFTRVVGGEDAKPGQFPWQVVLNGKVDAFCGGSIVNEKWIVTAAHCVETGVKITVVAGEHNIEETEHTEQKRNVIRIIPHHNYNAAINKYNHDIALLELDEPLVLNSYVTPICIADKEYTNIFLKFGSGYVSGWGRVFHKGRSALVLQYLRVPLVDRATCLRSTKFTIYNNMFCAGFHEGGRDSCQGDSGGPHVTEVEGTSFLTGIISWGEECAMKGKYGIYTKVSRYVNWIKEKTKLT
T3 sequence (P38435 whole entry K217A/K218A, the tested form may be a part): as the sequence (P38435 whole entry, the tested form may be a part) above, with K217A, K218A counted along it
T3 sequence (P00740 29-461 partner): as the sequence (P00740 29-461 partner) above
T1 sequence (P38435 whole entry K217A/K218A): as the sequence (P38435 whole entry, the tested form may be a part) above, with K217A, K218A counted along it
T1 sequence (P00742 32-488 partner limits assumed): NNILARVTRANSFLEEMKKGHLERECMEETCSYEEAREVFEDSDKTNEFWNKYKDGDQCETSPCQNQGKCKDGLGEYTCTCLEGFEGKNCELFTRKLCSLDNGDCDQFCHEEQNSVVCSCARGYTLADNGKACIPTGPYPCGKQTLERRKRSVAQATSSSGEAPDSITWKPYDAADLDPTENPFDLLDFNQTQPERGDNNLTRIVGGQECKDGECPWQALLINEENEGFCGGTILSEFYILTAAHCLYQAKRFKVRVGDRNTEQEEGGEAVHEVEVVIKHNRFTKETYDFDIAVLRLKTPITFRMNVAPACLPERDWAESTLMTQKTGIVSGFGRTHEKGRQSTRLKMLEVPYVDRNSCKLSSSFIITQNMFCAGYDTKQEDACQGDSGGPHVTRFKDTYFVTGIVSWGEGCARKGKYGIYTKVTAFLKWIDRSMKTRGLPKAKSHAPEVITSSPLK

As to `CC(C)=CCC/C(C)=C/CC/C(C)=C/CC/C(C)=C/Cc1c(C)c(O)c2ccccc2c1O` [MKH2-4], the “cryo-EM structure, 2.58 Å” value in test [1] is recorded as “unambiguous assignment of the bound molecule as MK-4 hydroquinone (MKH2-4)”. The “cryo-EM structure, 2.78 Å” value in test [2] (co-purified endogenous vitamin K, MK-4 by LC-MS/MS, ligand modelled by superposition with the K217A/K218A complex) is on record as “Superimposing GGCX^WT•FIX onto GGCX^AA•FIX facilitated modeling of MKH2-4 into the WT binding pocket”. The “cryo-EM structure, 2.59 Å” value in test [3] is recorded as “unambiguous assignment of the bound molecule as MK-4 hydroquinone (MKH2-4)”. As to `CC(C)CCC[C@@H](C)[C@H]1CC[C@H]2[C@@H]3CC=C4C[C@@H](O)CC[C@]4(C)[C@H]3CC[C@]12C` [cholesterol], the “cryo-EM structure, 2.78 Å” value in test [2] (co-purified lipid, which deposited model holds it is not told explicitly) is recorded as “A well-resolved co-purified cholesterol was also observed”.

In general, Kd refers to a measure of binding affinity in units of concentration. As for VKO, the Kd in test [4] was approximately 8.19 µM.

vitamin K gave a Kd in test [5] of approximately 0.85 µM.

Values taken from publication PMC12589487, “Molecular basis of vitamin K-dependent protein γ-glutamyl carboxylation” (Cell Research, 2025).
